Consider 17 compounds from publication PMC12114169, “Synthesis, Characterisation, Biological Evaluation and In Silico Studies of Quinoline–1,2,3-Triazole–Anilines as Potential Antitubercular and Anti-HIV Agents” (Molecules, 2025).

The test system of series [1] is Mtb H37Rv (ATCC 27294) strain. Kind of series: Antimycobacterial micro broth dilution (resazurin) assay. The series is classed as cell-based, Mycobacterium tuberculosis. The conditions noted are these: 7 days, read-out: Anti-Mtb H37Rv MIC90.
The nature of series [2]: MTT cytotoxicity evaluation. The conditions noted are these: human, Cytotoxicity CC50 TZM-bl Cell Line, MTT assay.
Series [3] relates to HIV-1 subtype B (NL4.3 virus). In words: Luciferase-based antiviral assay in TZM-bl cells. Particulars: for SI (CC50/IC50): selectivity index, TZM-bl CC50 / HIV-1 IC50.
For series [4], the system named is Mtb. Details: method as in PMID 21489660. Particulars: antitubercular activity; cited from earlier work.
The subject of series [5] is TZM-bl cell line. In words: MTT cytotoxicity evaluation. The conditions noted are these: read-out: Cytotoxicity CC50 TZM-bl Cell Line; MTT assay. (Tetrazolium dyes change colour on reduction, which living cells bring about.)
The target of series [6] is HIV reverse transcriptase. On the set-up: method as in PMID 30370848. Particulars: cited from earlier work.
[7] abbreviates: Mycobacterium tuberculosis, 168 h.
Where [8] appears, read: Human immunodeficiency virus 1, TZM-bl, 48 h, read-out: Anti-HIV HIV-1 Subtype B IC50, NL4.3 virus in TZM-bl cells, 48 h, luciferase.
[9] abbreviates: read-out: Anti-HIV HIV-1 Subtype B IC50, NL4.3 virus in TZM-bl cells, 48 h, luciferase.

For orientation: MIC90 means the lowest concentration that inhibits either 90% of growth or 90% of the strains tested, depending on the study. Usually CC50 stands for the concentration that lowers cell viability or growth by half. A word on the IC50: it is the concentration that inhibits the measured activity by half. Usually MIC stands for the least concentration at which growth counts as inhibited.

In brackets after ≈: the same amount, converted by molar mass. Several values for one entry are separate records, joined by “and”; a condition that tells them apart may be missing. Identical values can stand only once. Like-named read-outs stand apart in the source and are kept apart here.

Take `CC[C@@H](CO)NCCN[C@@H](CC)CO` [Ethambutol, reference compound]: the MIC90 in series [1] (setting [7]) was 9.68 µM (≈ 1.98 µg/mL).
For the compound `C#CCNc1ccccc1` [Compound 10a, N-2-propyl-1-yl-benzanamine], in series [1] (setting [7]), the MIC90 was 3810 µM (≈ 500 µg/mL).
`O=[N+]([O-])c1cccc(NCc2cn(-c3ccnc4cc(Cl)ccc34)nn2)c1` [Compound 11i, [1-(7-Chloro-4-quinolinyl)-1H-1,2,3-triazole-4-methyl]-3-nitroaniline] gave a CC50 in series [2] of 0.00901 µM. The IC50 in series [3] (setting [8]) stood at 0.17 µM; in series [3] (setting [9]) it was 0.167 µM. For the same compound, the “SI (CC50/IC50)” value in series [3] came to 0.05.
With `COc1ccc2nccc(-n3cc(CN4CCN(C(C)=O)CC4)nn3)c2c1` [Compound 3], the MIC in series [4] was 0.625 µg/mL (≈ 1.71 µM).
As to `FC(F)(F)c1ccccc1NCc1cn(-c2ccnc3cc(Cl)ccc23)nn1` [Compound 11g, [1-(7-Chloro-4-quinolinyl)-1H-1,2,3-triazole-4-methyl]-2-triflouromethylaniline], the MIC90 in series [1] (setting [7]) amounted to 155 µM (≈ 62.6 µg/mL). Moreover, the half-inhibitory concentration (IC50) in series [3] (setting [8]) and in series [3] (setting [9]) was 0.388 µM in each case. In addition, the “SI (CC50/IC50)” value in series [3] is 11,367.49.
With `COc1ccc2nccc(-n3cc(CNC(C)=O)nn3)c2c1` [Compound 1], the minimal inhibitory concentration (MIC) in series [4] is reported as 0.625 µg/mL (≈ 2.1 µM).
As for `Fc1cccc(NCc2cn(-c3ccnc4cc(Cl)ccc34)nn2)c1` [Compound 11h, [1-(7-Chloro-4-quinolinyl)-1H-1,2,3-triazole-4-methyl]-3-flouroaniline], the figures for the MIC90 in series [1] and in series [1] (setting [7]) were 88.72 µM (≈ 31.4 µg/mL) and 88 µM (≈ 31.1 µg/mL), respectively. In addition, the CC50 in series [2] is 25.5 µM. Further, the concentration for half-maximal inhibition (IC50) in series [3] (setting [8]) and in series [3] (setting [9]) was 0.0103 µM each time. For the same compound, the “SI (CC50/IC50)” value in series [3] is 2472.87.
Turning to `COc1ccc(NCc2cn(-c3ccnc4cc(Cl)ccc34)nn2)cc1` [Compound 11j, [1-(7-Chloro-4-quinolinyl)-1H-1,2,3-triazole-4-methyl]-4-methoxyaniline], the MIC90 in series [1] (setting [7]) stood at 1370 µM (≈ 501 µg/mL). In addition, the CC50 in series [2] was determined as 4 µM. Further, the IC50 in series [3] (setting [8]) came out at 180 µM. In series [3], the “SI (CC50/IC50)” value is listed as 0.02.
For the compound `Clc1ccc2c(-n3cc(CNc4ccc(Br)cc4)nn3)ccnc2c1` [Compound 11b, [1-(7-Chloro-4-quinolinyl)-1H-1,2,3-triazole-4-methyl]-4-bromoaniline], the MIC90 in series [1] (setting [7]) came out at 1210 µM (≈ 502 µg/mL). Moreover, it took 0.248 µM to reach half-maximal cytotoxicity in series [2] (CC50). The concentration for half-maximal inhibition (IC50) in series [3] (setting [8]) was 124 µM. In series [3], the “SI (CC50/IC50)” value is given as 1.994 × 10^−3.
In the case of `[N-]=[N+]=Nc1ccnc2cc(Cl)ccc12` [Compound 7, 4-azido-7-chloroquinoline], the MIC90 in series [1] (setting [7]) was determined as 19.1 µM (≈ 3.91 µg/mL).
`Cc1cn([C@H]2C[C@H](N=[N+]=[N-])[C@@H](CO)O2)c(=O)[nH]c1=O` [AZT, azidothymidine, reference compound]: in series [2], the CC50 worked out at 1120 µM. Moreover, the concentration for half-maximal inhibition (IC50) in series [3] (setting [8]) stood at 0.0909 µM. Besides, the “SI (CC50/IC50)” value in series [3] was 12,349 and 12,349.59.
On to `Clc1ccc2c(-n3cc(CNc4ccccc4)nn3)ccnc2c1` [Compound 11a], for which, in series [1] (setting [7]), the MIC90 is 187 µM (≈ 62.6 µg/mL). In addition, the half-maximal cytotoxic concentration (CC50) is over 100 µM in series [2] and 177 µM in series [5]. For the same compound, the IC50 in series [3] (setting [8]) came out at 3.01 µM. In addition, in series [3], the “SI (CC50/IC50)” value is 58.75.
As to `Clc1cccc(NCc2cn(-c3ccnc4cc(Cl)ccc34)nn2)c1` [Compound 11e, [1-(7-Chloro-4-quinolinyl)-1H-1,2,3-triazole-4-methyl]-3-chloroaniline], the MIC90 in series [1] (setting [7]) was 169 µM (≈ 62.5 µg/mL). Also, it took 835 µM to reach half-maximal cytotoxicity in series [2] (CC50). For the same compound, the IC50 in series [3] (setting [8]) amounted to 714 µM. The “SI (CC50/IC50)” value in series [3] worked out at 1.17.
Regarding `COc1ccc(S(=O)(=O)NCc2cn(-c3ccnc4ccc(OC)cc34)nn2)cc1` [Compound 2], the MIC in series [4] is listed as 0.625 µg/mL (≈ 1.47 µM).
Regarding `O=C1O[C@](C#CC2CC2)(C(F)(F)F)c2ccccc2N1Cc1cn(-c2ccnc3cc(Cl)ccc23)nn1` [Compound 5], the IC50 in series [6] is 0.8 µM.
Regarding `Clc1ccc2c(-n3cc(CNc4ccc(I)cc4)nn3)ccnc2c1` [Compound 11c, [1-(7-Chloro-4-quinolinyl)-1H-1,2,3-triazole-4-methyl]-4-iodoaniline], the MIC90 in series [1] (setting [7]) amounted to 1080 µM (≈ 501 µg/mL). Besides, half-maximal cytotoxicity in series [2] (CC50) was put at 157 µM. In addition, the concentration for half-maximal inhibition (IC50) in series [3] (setting [8]) stood at 23.2 µM. For the same compound, in series [3], the “SI (CC50/IC50)” value came to 6.76.
With `Fc1ccc(NCc2cn(-c3ccnc4cc(Cl)ccc34)nn2)cc1` [Compound 11d, [1-(7-Chloro-4-quinolinyl)-1H-1,2,3-triazole-4-methyl]-4-flouroaniline], the MIC90 in series [1] (setting [7]) turned out to be 177 µM (≈ 62.5 µg/mL). In addition, in series [2], the cytotoxic concentration (CC50) is 1320 µM. Besides, the “Anti-HIV HIV-1 Subtype B IC50” value in series [3] (NL4.3 virus in TZM-bl cells, 48 h, luciferase) is “DNC *”.
